Reference: PubChem BioAssay (NCI)
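Each compound was tested at five concentrations against cells in 96-well plates for 48 hours. TGI is the concentration that stops growth completely.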

What was measured:
Test in all cases: growth of human tumour cells (NCI), 48 h
[1] = tested on: MDA-N
[2] = tested on: HCT-15 colon
[3] = tested on: SN12C renal
[4] = tested on: HL-60(TB) leukemia
[5] = tested on: HCT-116 colon
[6] = tested on: MDA-MB-231 breast
[7] = tested on: CCRF-CEM leukemia
[8] = tested on: ACHN renal
[9] = tested on: OVCAR-4 ovarian
[10] = tested on: 786-0 renal
[11] = tested on: SNB-75 CNS
[12] = tested on: SR leukemia
[13] = tested on: NCI/ADR-RES ovarian
[14] = tested on: MCF7 breast
[15] = tested on: UACC-257 melanoma
[16] = tested on: OVCAR-8 ovarian
[17] = tested on: OVCAR-5 ovarian
[18] = tested on: UACC-62 melanoma
[19] = tested on: CAKI-1 renal
[20] = tested on: NCI-H522 lung
[21] = tested on: SF-539 CNS
[22] = tested on: SK-MEL-28 melanoma
[23] = tested on: SK-OV-3 ovarian
[24] = tested on: A498 renal
[25] = tested on: MOLT-4 leukemia
[26] = tested on: EKVX NSCLC
[27] = tested on: K-562 leukemia
[28] = tested on: HOP-62 NSCLC
[29] = tested on: DU-145 prostate
[30] = tested on: TK-10 renal
[31] = tested on: NCI-H460 lung
[32] = tested on: NCI-H23 lung
[33] = tested on: HT29 colon
[34] = tested on: U251 CNS
[35] = tested on: SW-620 colon
[36] = tested on: LOX IMVI melanoma
[37] = tested on: UO-31 renal
[38] = tested on: PC-3 prostate
[39] = tested on: KM12 colon
[40] = tested on: NCI-H226 lung
[41] = tested on: SF-295 CNS
[42] = tested on: SNB-19 CNS
[43] = tested on: M14 melanoma
[44] = tested on: T-47D breast
[45] = tested on: MDA-MB-435
[46] = tested on: MALME-3M melanoma
[47] = tested on: SK-MEL-5 melanoma
[48] = tested on: A549 NSCLC
[49] = tested on: IGROV1 ovarian
[50] = tested on: COLO 205 colon
[51] = tested on: HS 578T breast
[52] = tested on: SF-268 CNS
[53] = tested on: HOP-92 NSCLC
[54] = tested on: RXF 393 renal
[55] = tested on: HCC-2998 colon
[56] = tested on: OVCAR-3 ovarian
[57] = tested on: RPMI-8226 leukemia
[58] = tested on: SK-MEL-2 melanoma

`CCCCCc1c(Cl)nc(Cl)nc1Cl` gave a TGI [1] of 16.6 µM, a TGI [2] of 29.9 µM and a TGI [3] of 10.8 µM. For the same molecule, the TGI [4] was 5.93 µM, the TGI [5] was 14.1 µM and the TGI [6] was 17.8 µM. For the same molecule, the TGI [7] was 650 nM, the TGI [8] was 77.7 µM and the TGI [9] was 43 µM. The TGI [10] was 12.8 µM, the TGI [11] was 93.1 µM and the TGI [12] was 860 nM. For the same molecule, the TGI [13] was 46.3 µM, the TGI [14] was 27.3 µM and the TGI [15] was 29.7 µM. The TGI [16] was 25.9 µM, the TGI [17] was 31.1 µM and the TGI [18] was 43.3 µM. For the same molecule, the TGI [19] was 8.6 µM, the TGI [20] was 6.61 µM and the TGI [21] was 29.9 µM. It also gave a TGI [22] of 46.5 µM, a TGI [23] of 31.8 µM and a TGI [24] of 34.7 µM. It also gave a TGI [25] of 1010 nM, a TGI [26] of 52 µM and a TGI [27] of 7.45 µM. It also gave a TGI [28] of 39.7 µM, a TGI [29] of 45.5 µM and a TGI [30] of 32.2 µM. The TGI [31] was 51.9 µM, the TGI [32] was 16 µM and the TGI [33] was 18.5 µM. For the same molecule, the TGI [34] was 25.1 µM, the TGI [35] was 26.2 µM and the TGI [36] was 6.01 µM. For the same molecule, the TGI [37] was 37.9 µM, the TGI [38] was 36.9 µM and the TGI [39] was 28.6 µM. For the same molecule, the TGI [40] was 6.02 µM, the TGI [41] was 53.7 µM and the TGI [42] was 38.9 µM. For the same molecule, the TGI [43] was 5.46 µM, the TGI [44] was 52.2 µM and the TGI [45] was 6.98 µM. For the same molecule, the TGI [46] was 28.1 µM, the TGI [47] was 18.1 µM and the TGI [48] was greater than 92.3 µM. It also gave a TGI [49] of 31.9 µM, a TGI [50] of 27 µM and a TGI [51] greater than 100 µM. For the same molecule, the TGI [52] was 49.2 µM, the TGI [53] was 15.3 µM and the TGI [54] was 23.7 µM. The TGI [55] was 27 µM, the TGI [56] was 30.8 µM and the TGI [57] was 12.3 µM.

In the case of `Clc1ccc(Cl)c(N=Nc2cc3c4c(c2)CCCN4CCC3)c1`, the TGI [1] is reported as greater than 10 µM, the TGI [2] is reported as greater than 10 µM and the TGI [3] is reported as greater than 10 µM. It also gave a TGI [4] greater than 10 µM, a TGI [5] greater than 10 µM and a TGI [6] greater than 10 µM. It also gave a TGI [7] greater than 10000 nM, a TGI [8] greater than 10 µM and a TGI [9] greater than 10 µM. It also gave a TGI [10] greater than 10 µM, a TGI [11] greater than 10 µM and a TGI [12] greater than 10000 nM. It also gave a TGI [13] greater than 10 µM, a TGI [14] greater than 10 µM and a TGI [15] greater than 10 µM. The TGI [16] was greater than 10 µM, the TGI [18] was greater than 10 µM and the TGI [19] was greater than 10 µM. The TGI [20] was greater than 10 µM, the TGI [21] was greater than 10 µM and the TGI [22] was greater than 10 µM. For the same molecule, the TGI [23] was greater than 10 µM, the TGI [24] was greater than 10 µM and the TGI [25] was greater than 10000 nM. The TGI [26] was greater than 10 µM, the TGI [27] was greater than 10 µM and the TGI [28] was greater than 10 µM. It also gave a TGI [29] greater than 10 µM, a TGI [30] greater than 10 µM and a TGI [31] greater than 10 µM. The TGI [32] was greater than 10 µM, the TGI [33] was greater than 10 µM and the TGI [58] was greater than 10 µM. It also gave a TGI [34] greater than 10 µM, a TGI [35] greater than 10 µM and a TGI [36] greater than 10 µM. For the same molecule, the TGI [37] was greater than 10 µM, the TGI [38] was greater than 10 µM and the TGI [39] was greater than 10 µM. The TGI [40] was greater than 10 µM, the TGI [41] was greater than 10 µM and the TGI [42] was greater than 10 µM. The TGI [43] was greater than 10 µM, the TGI [44] was greater than 10 µM and the TGI [45] was greater than 10 µM. It also gave a TGI [46] greater than 10 µM, a TGI [47] greater than 10 µM and a TGI [48] greater than 10 µM. It also gave a TGI [49] greater than 10 µM, a TGI [50] greater than 10 µM and a TGI [51] greater than 10 µM. For the same molecule, the TGI [52] was greater than 10 µM, the TGI [53] was greater than 10 µM and the TGI [54] was greater than 10 µM. It also gave a TGI [55] greater than 10 µM, a TGI [56] greater than 10 µM and a TGI [57] greater than 10 µM.
